From patent US7511068B2, “Mercaptoimidazoles as CCR2 receptor antagonists” (Janssen Pharmaceutica, N.V., priority 2003, dated 2009) come the findings set out here.

The structures appear in SMILES notation.

The target of one data set is T1, CCR2 receptor (Homo sapiens, UniProt P41597).
T1 construct: host or cells: THP-1 human monocytic cell line
T1 sequence (P41597 1-360 isoform P41597-2): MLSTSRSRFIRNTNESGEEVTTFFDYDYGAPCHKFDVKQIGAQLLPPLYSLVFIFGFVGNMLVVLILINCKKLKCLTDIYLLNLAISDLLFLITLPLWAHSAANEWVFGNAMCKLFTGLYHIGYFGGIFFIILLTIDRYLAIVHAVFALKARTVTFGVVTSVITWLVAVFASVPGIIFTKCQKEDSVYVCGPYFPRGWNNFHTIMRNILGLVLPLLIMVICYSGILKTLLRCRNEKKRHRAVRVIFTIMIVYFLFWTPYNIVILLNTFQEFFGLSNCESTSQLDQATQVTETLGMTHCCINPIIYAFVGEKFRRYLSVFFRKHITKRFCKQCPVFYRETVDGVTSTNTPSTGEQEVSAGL
Nature of the data set: Inhibition of MCP-1 induced Ca-flux in human THP-1 cells. The note with it: inhibition of specific MCP-1 (10^-7 M hMCP-1) induced Ca2+ flux in human THP-1 cells; pIC50 = -log IC50 (molar). The format is cell-based. The method, then: C. Pharmacological Example Inhibition of MCP-1 Induced Ca-flux in Human THP-1 Cells
MCP-1 binding to the CCR2 receptor induces a rapid and transient intracellular release of Ca^2+ (secondary messenger) in several cell lines (Charo et al, PNAS 1994). Free Ca^2+ levels can be measured using a Ca^2+ sensitive dye. When the CCR2 receptor is blocked with a CCR2 receptor antagonist, the MCP-1 induced release of Ca^2+ is inhibited.
Human THP-1 cells (monocytic cell line, ATCC TIB-202) were cultured in RPMI 1640 medium supplemented with 10% fetal calf serum (FCS), 1% L-Glutamine, penicillin (50 U/ml) and streptomycin (50 μg/ml) (all GIBCO BRL, Gent). After centrifugation, cells were loaded for 30 minutes with the Ca^2+ sensitive fluorescent dye Fluo-3 AM (Molecular Probes, Leiden, Netherlands) (2 million cells/ml in RPMI medium containing 4 μM Fluo-3 AM, 20 mM HEPES, 0.1% Bovine Serum Albumin (BSA) and 5 mM probenecid). Excess dye was removed by 3-fold washing with buffer (5 mM HEPES, 140 mM NaCl, 1 mM MgCl2, 5 mM KCl, 10 mM glucose, 2.5 mM probenecid, 1.25 mM CaCl2, 0.1% BSA; all further incubations were done in this buffer). Cells were plated at a density of 150 000 cells/well in dark-wall 96-well plates (Costar, Cambridge, Mass.) and sedimented by centrifugation (1 minute). The cells were pre-incubated for 20 minutes with test compound. Then, 10^−7 M hMCP-1 (Bachem, Bubendorf, Switserland) was added. Changes in intracellular free Ca^2+ concentration were measured using the Fluorescent Imaging Plate Reader (FLIPR, Molecular Devices, Munchen, Germany). Fluorescence was recorded every second from 10 seconds before the addition of the MCP-1 till 2 minutes after the addition (first minute: 60 records with 1 second intervals, second minute 20 records with 3 second intervals).
The maximal fluorescence obtained during this time frame was used for further calculations.
Table 4 reports pIC50 values obtained in the above-described test for compounds of formula (I). pIC50 defines −log IC50 wherein IC50 is the molar concentration of the test compound which inhibits 50% of specific MCP-1 induced Ca^2+ flux.
With `CCC(c1ccc(Cl)c(Cl)c1)n1c(S)nc(C(=O)OC(C)(C)C)c1C#N` (centres unmarked) [Compound 78], inhibition was half-maximal at 0.813 µM (IC50).

As to `CCC(c1ccc(Cl)c(Cl)c1)n1c(S)nc(C(=O)NC)c1C(=O)OC` (centres unmarked) [Compound 87], the IC50 was 0.0331 µM.

As to `CCC(c1ccc(Cl)c(Cl)c1)n1c(S)nc(C(=O)O)c1C#N` (centres unmarked) [Compound 88], the IC50 is 0.174 µM.

Regarding `CCC(c1ccc(Cl)c(Cl)c1)n1c(S)nc(COC)c1C(=O)OC` (centres unmarked) [Compound 89], the IC50 is 0.107 µM.

`COC(=O)c1c(C(N)=O)[nH]c(=S)n1C(C)c1ccc(Cl)c(Cl)c1` (centres unmarked) [Compound 90] gave an IC50 of 0.133 µM. This IC50 and that of the compound before are within 1.5-fold of each other.

For the compound `CC(c1ccc(Cl)c(Cl)c1)n1cc(C(N)=O)[nH]c1=S` (centres unmarked) [Compound 91], the IC50 is 8.13 µM.

As for `COCC(c1ccc(Cl)c(Cl)c1)n1c(C(=O)OC)cnc1S` (centres unmarked) [Compound 94], the IC50 was 0.305 µM.

`CCC(c1ccc(Cl)c(Cl)c1)n1c(C(=O)NN)c[nH]c1=S` (centres unmarked) [Compound 95] had a concentration for half-maximal inhibition (IC50) of 0.245 µM.

Regarding `CCC(c1ccc(Cl)c(Cl)c1)n1c(C(=O)OC)c(C(=O)NNC(C)=O)[nH]c1=S` (centres unmarked) [Compound 96], the IC50 is 0.186 µM.

In turn, `CC(c1ccc(Cl)c(Cl)c1)n1c(C(N)=O)c(C(N)=O)[nH]c1=S` (centres unmarked) [Compound 98] showed an IC50 of 2.04 µM.

As to `CCC(c1ccc(C)c(C)c1)n1c(C(=O)OC)c(C(=O)OC)[nH]c1=S` (centres unmarked) [Compound 99], half-maximal inhibition (IC50) required 0.343 µM. This IC50 lies about 5.9-fold lower than the previous one.

`COCC(c1ccc(Cl)c(Cl)c1)n1c(C(=O)OC)c(C(=O)OC)[nH]c1=S` (centres unmarked) [Compound 100] had an IC50 of 0.0324 µM.

Compound `COCC(c1ccc(Cl)c(Cl)c1)n1c(C(N)=O)c[nH]c1=S` (centres unmarked) [Compound 104] showed an IC50 of 0.0857 µM. Against the preceding compound, the IC50 is about 2.6-fold higher.

Compound `CCC(c1ccc(Cl)c(Cl)c1)n1c(C(=O)NCCO)c[nH]c1=S` (centres unmarked) [Compound 105] had an IC50 of 0.13 µM.

Turning to `CCC(c1ccc(Cl)c(Cl)c1)n1c(C(=O)N(C)OC)c[nH]c1=S` (centres unmarked) [Compound 106], the IC50 is 1.78 µM.

With `CCC(c1ccc(Cl)c(Cl)c1)n1c(S)nc(C(=O)NC)c1C(=O)NC` (centres unmarked) [Compound 107], half-maximal inhibition (IC50) required 0.355 µM.

With `CCC(c1ccc(Cl)c(Cl)c1)n1c(C(=O)OC)c(C(=O)N2CCCCC2)[nH]c1=S` (centres unmarked) [Compound 108], the IC50 is 0.112 µM.

As to `CCC(c1ccc(Cl)c(Cl)c1)n1c(C(=O)OC)c(C(=O)N2CCOCC2)[nH]c1=S` (centres unmarked) [Compound 109], 1.15 µM corresponded to half-maximal inhibition (IC50).

`CCC(c1ccc(Cl)c(Cl)c1)n1c(C(=O)OC)c(C(=O)NCCO)[nH]c1=S` (centres unmarked) [Compound 110]: it took 0.112 µM to reach half-maximal inhibition (IC50).

`CCC(c1ccc(Cl)c(Cl)c1)n1c(C(N)=O)c(COC)[nH]c1=S` (centres unmarked) [Compound 113] showed an IC50 of 0.24 µM.

`CCC(c1ccc(Cl)c(Cl)c1)n1c(C(=O)NC)c(COC)[nH]c1=S` (centres unmarked) [Compound 114] gave an IC50 of 1.78 µM. Against the preceding compound, the IC50 is about 7.4-fold higher.

For the compound `CCC(c1ccc(Cl)c(Cl)c1)n1c(C(=O)NCCO)c(COC)[nH]c1=S` (centres unmarked) [Compound 115], the IC50 was 1.2 µM.

Compound `CCC(c1cc(F)cc(F)c1)n1c(C(=O)OC)cnc1S` (centres unmarked) [Compound 118] had an IC50 of 8.32 µM.

For `CCC(c1ccc(Cl)c(Cl)c1)n1c(C(=O)NNC(C)=O)c[nH]c1=S` (centres unmarked) [Compound 119], half-maximal inhibition (IC50) was put at 0.871 µM.

Take `CCC(c1ccc(Cl)c(Cl)c1)n1c(C(=O)NNC=O)c[nH]c1=S` (centres unmarked) [Compound 120]: the midpoint of inhibition, the IC50, lay at 1.05 µM.

Turning to `CCC(c1ccc(Cl)cc1)n1c(C(=O)OC)cnc1S` (centres unmarked) [Compound 123], the IC50 is 4.68 µM.

As to `CCC(c1cc(F)cc(F)c1)n1c(C(=O)OC)c(C(=O)OC)[nH]c1=S` (centres unmarked) [Compound 124], half-maximal inhibition (IC50) was put at 0.0646 µM.

On to `CCC(c1cc(Cl)cc(Cl)c1)n1c(C(=O)OC)c(C(=O)OC)[nH]c1=S` (centres unmarked) [Compound 130], for which it took 1.66 µM to reach half-maximal inhibition (IC50).

Regarding `CCC(c1cc(F)c(F)c(F)c1)n1c(C(=O)OC)c[nH]c1=S` (centres unmarked) [Compound 135], the IC50 is 4.27 µM.

Compound `CCC(c1ccc(F)c(F)c1)n1c(C(=O)OC)c(C(=O)OC(C)(C)C)[nH]c1=S` (centres unmarked) [Compound 137] showed an IC50 of 2.51 µM.

Take `CCC(c1ccc(Br)c(Br)c1)n1c(C(N)=O)c[nH]c1=S` (centres unmarked) [Compound 138]: the IC50 was 0.176 µM.

Compound `CCC(c1ccc(F)c(F)c1)n1c(C(=O)OC)c(C(N)=O)[nH]c1=S` (centres unmarked) [Compound 142] had an IC50 of 0.0589 µM.

Turning to `CCC(c1cc(F)c(F)c(F)c1)n1c(C(N)=O)c[nH]c1=S` (centres unmarked) [Compound 143], the IC50 is 0.166 µM.

`CCC(c1cc(F)c(F)c(F)c1)n1c(C(=O)OC)c(C(=O)OC)[nH]c1=S` (centres unmarked) [Compound 148] showed an IC50 of 0.0335 µM.

`CCCC(c1ccc(Cl)c(Cl)c1)n1c(C(=O)OC)c(C(N)=O)[nH]c1=S` (centres unmarked) [Compound 149] showed an IC50 of 0.0324 µM. This IC50 and that of the compound before are within 1.5-fold of each other.

In turn, `COC(=O)c1[nH]c(=S)n(C(c2ccc(Cl)c(Cl)c2)c2ccc(Cl)c(Cl)c2)c1C(=O)OC` [Compound 150] showed an IC50 of 0.468 µM.

In turn, `CCC(=O)c1c[nH]c(=S)n1C(CC)c1ccc(Cl)c(Cl)c1` (centres unmarked) [Compound 151] gave an IC50 of 0.299 µM. Compared with the last compound, the IC50 is about 1.6-fold lower.

Tested on in another data set: not given
Test: not given
Conditions: not given
Compound `CCC(c1ccc(Cl)c(Cl)c1)n1c(S)nc(C(=O)OC(C)(C)C)c1C#N` (centres unmarked) [Compound 78] returned a melting point of 172.7 to 175.2 °C.

A word on the IC50: it is the midpoint of a concentration-inhibition curve. Read a low IC50 as greater potency. For orientation: melting point means the temperature, or range, at which the solid turns liquid.
